In ChEMBL document CHEMBL1155100, “Design and synthesis of novel 3-hydroxy-cyclobut-3-ene-1,2-dione derivatives as thyroid hormone receptor beta (TR-beta) selective ligands” (Bioorg Med Chem Lett, 2008):

Experiments:
[1] = target: T1, Thyroid hormone receptor beta (Homo sapiens, UniProt P10828)
T1 sequence (P10828 whole entry): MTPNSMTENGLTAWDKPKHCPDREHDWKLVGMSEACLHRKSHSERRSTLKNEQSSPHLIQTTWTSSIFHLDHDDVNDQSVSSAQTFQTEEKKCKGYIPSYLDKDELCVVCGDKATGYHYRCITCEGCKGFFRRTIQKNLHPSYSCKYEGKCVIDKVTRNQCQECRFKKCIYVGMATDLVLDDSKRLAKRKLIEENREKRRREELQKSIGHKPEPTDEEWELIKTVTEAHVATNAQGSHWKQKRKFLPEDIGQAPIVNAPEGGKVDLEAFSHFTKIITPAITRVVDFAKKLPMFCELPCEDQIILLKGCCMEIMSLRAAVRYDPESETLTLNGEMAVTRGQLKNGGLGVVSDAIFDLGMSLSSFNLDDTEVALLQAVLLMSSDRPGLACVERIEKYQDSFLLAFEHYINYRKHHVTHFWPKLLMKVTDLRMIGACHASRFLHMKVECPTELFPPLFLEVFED

[2] = target: T2, Thyroid hormone receptor alpha (Homo sapiens, UniProt P10827); assay: Agonist activity at human thyroid hormone receptor alpha expressed in CV1 cells by TRE-luciferase assay; format: functional, cell-based, CV-1
T2 sequence (P10827 whole entry): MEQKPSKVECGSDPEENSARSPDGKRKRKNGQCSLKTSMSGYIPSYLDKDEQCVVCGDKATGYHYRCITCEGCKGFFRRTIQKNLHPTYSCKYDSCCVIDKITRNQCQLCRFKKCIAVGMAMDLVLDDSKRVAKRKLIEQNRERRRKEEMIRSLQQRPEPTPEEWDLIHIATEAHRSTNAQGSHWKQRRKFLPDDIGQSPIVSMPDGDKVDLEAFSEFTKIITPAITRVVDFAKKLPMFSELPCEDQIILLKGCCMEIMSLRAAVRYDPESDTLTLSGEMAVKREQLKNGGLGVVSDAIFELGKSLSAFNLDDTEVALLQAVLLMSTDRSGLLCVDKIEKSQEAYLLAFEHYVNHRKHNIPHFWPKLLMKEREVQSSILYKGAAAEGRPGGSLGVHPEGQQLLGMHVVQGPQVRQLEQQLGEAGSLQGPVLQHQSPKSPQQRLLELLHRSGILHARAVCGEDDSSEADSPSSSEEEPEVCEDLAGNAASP

Compound | EC50 [1] | EC50 [2]
CC(C)c1cc(Oc2c(Cl)cc(Nc3c(O)c(=O)c3=O)cc2Cl)ccc1O | 0.07 µM | 0.222 µM
CC(C)(C)c1cc(Oc2c(Cl)cc(Nc3c(O)c(=O)c3=O)cc2Cl)ccc1O | 0.317 µM | 1.06 µM
